One assay relates to HIV-1IIIB. Briefly: HIV-1 antiviral assay in CEM-SS cells (MTS readout).
In assay [1] the test system is hepatitis B virus (HBV) ayw strain. The assay is described as follows: HBV experimental assay system, secreted HBV DNA by TaqMan PCR. It is filed as cell-based. As to conditions: 10 micrograms per ml; HepG2-2.2.15 cells; six days. (In qPCR the cycle at which signal appears reflects the starting amount.)
For a further assay, the system named is HCMV strain AD169. Briefly: HCMV plaque formation assay in MRC-5 cells. The note with it: 10 micrograms per ml, 7-10 days. It is filed as cell-based. The source says: Cells were split twic a week 1:2.
Ganciclovir was used as positive control.

The next assay relates to Streptococcus pneumoniae. The assay is described as follows: Streptococcus pneumoniae growth assay. It is filed as cell-based. The note with it: 10 micrograms per ml; 5×10^5 CFU/mL.
The subject of a further assay is murine spleen cells. The assay is described as follows: Th1/Th2 cytokine profiling assay in Ovalbumin-restimulated spleen cells. It is filed as cell-based, Balb/c mice. The note with it: 10 micrograms per ml, Ovalbumin restimulation, 72 hours.
In assay [2] the test system is Primary Human endothelial cells (HUVEC). The assay is described as follows: Endothelial cell migration assay. It is filed as cell-based. The note with it: 10 micrograms per ml, 22 hours. As for the experimental part:
Thereafter, designated concentration of testing peptides—10 micrograms per ml—was added in duplicate wells.

The test system of a further assay is HUVEC. The assay is described as follows: Endothelial tube formation assay. It is filed as cell-based, human. The note with it: 10 micrograms per ml, 20 hours. An excerpt:
[…] control wes vehicle only. […] Raw data were expressed as average tubule lenghs in pixels±standard deviation.

Where no end group is shown, it is not given here.

Four compounds from US20100204132A1, “[…] USES OF PEPTIDES […] and […]” (priority 2007, published 2010) can be followed below.

For `Cc1cn([C@H]2C[C@H](N=[N+]=[N-])[C@@H](CO)O2)c(=O)[nH]c1=O` [AZT], the “antiviral activity of positive control compounds (HIV-1)” value in the assay on HIV-1IIIB is “expected levels of antiviral activity”.
Same read-out and setting: the result for `CC(C)(C)NC(=O)[C@@H]1CN(Cc2cccnc2)CCN1C[C@@H](O)C[C@@H](Cc1ccccc1)C(=O)N[C@H]1c2ccccc2C[C@H]1O` [indinavir] reads “expected levels of antiviral activity”.
As for “Trp-Met-Asn-Ser-Thr-Gly-Phe-Thr-Lys-Val-Cys-Gly-Ala-Pro-Pro-Cys-OH (WMNSTGFTKVCGAPPC-OH; cysteine pairing not given here) [Peptide 2]”, in assay [1], the “inhibition of HBV replication as compared to the virus control infection” value turned out to be 53.2%. For the same compound, the “inhibition of HCMV plaque formation as compared to the virus control” value with HCMV strain AD169 is reported as “did not inhibit”. In addition, the “inhibition of the growth of Streptococcus pneumoniae” value in the assay on Streptococcus pneumoniae is listed as 100%. For the same compound, in the assay on murine spleen cells, the “change of the production of IFN-γ” value is recorded as “did not significantly change”, the “change of the production of IL-5” value is listed as “did not significantly change”, the “change of the production of TNF-a” value is given as “did not significantly change” and the “induction (increase) of the production of IL-2” value is 92.6%. Further, the “induction (increase) of the production of IL-4” value in the assay with murine spleen cells amounted to 87.3%. Moreover, the “increase of the migration of human endothelial cells” value in assay [2] is 7%. Besides, in the assay with HUVEC, the “inhibition of the tube formation of human endothelial cells” value was 8%.
Regarding “Tyr-Ser-Ala-Tyr-Pro-Asp-Ser-Val-Pro-Met-Met-Ser-OH [Peptide 1]”, in assay [1], the “inhibition of HBV replication as compared to the virus control infection” value came to 51.1%. The “inhibition of HCMV plaque formation as compared to the virus control” value with HCMV strain AD169 is given as “did not inhibit”. In addition, the “inhibition of the growth of Streptococcus pneumoniae” value in the assay with Streptococcus pneumoniae was found to be 100%. In addition, in the assay on murine spleen cells, the “change of the production of IFN-γ” value is “did not significantly change”, the “change of the production of IL-5” value is “did not significantly change”, the “change of the production of TNF-a” value is listed as “did not significantly change” and the “induction (increase) of the production of IL-2” value is given as 82.2%. For the same compound, the “induction (increase) of the production of IL-4” value in the assay on murine spleen cells is recorded as 74.3%. In addition, the “increase of the migration of human endothelial cells” value in assay [2] is 4%. Also, the “inhibition of the tube formation of human endothelial cells” value in the assay on HUVEC is reported as 4%.
